These results are taken from ChEMBL document CHEMBL3045421, “5-Nitro-heteroarylidene analogs of 2-thiazolylimino-4-thiazolidinones as a novel series of antibacterial agents” (2013).

Holding throughout (assay type): functional
Experiment [1] concerns Helicobacter pylori. The experiment is described as follows: Antibacterial activity against Helicobacter pylori strain 2 assessed as diameter of growth inhibition zone at 16 ug/disk after 3-5 days by filter paper disk diffusion method. To be noted: read-out: DIZ.
Experiment [2] relates to Helicobacter pylori. In words: Antibacterial activity against Helicobacter pylori strain 2 assessed as diameter of growth inhibition zone at 32 ug/disk after 3-5 days by filter paper disk diffusion method. The conditions noted are these: read-out: DIZ. (Agar diffusion results depend on both activity and mobility in agar.)
Experiment [3] concerns Helicobacter pylori. The experiment is described as follows: Antibacterial activity against Helicobacter pylori strain 3 assessed as diameter of growth inhibition zone at 32 ug/disk after 3-5 days by filter paper disk diffusion method. The conditions noted are these: read-out: DIZ.
Experiment [4] deals with Helicobacter pylori. The experiment is described as follows: Antibacterial activity against Helicobacter pylori strain 2 assessed as diameter of growth inhibition zone at 8 ug/disk after 3-5 days by filter paper disk diffusion method. To be noted: read-out: DIZ.
In experiment [5] the test system is Helicobacter pylori. In words: Antibacterial activity against Helicobacter pylori strain 1 assessed as diameter of growth inhibition zone at 64 ug/disk after 3-5 days by filter paper disk diffusion method. The conditions noted are these: read-out: DIZ.
For experiment [6], the system named is Helicobacter pylori. The experiment is described as follows: Antibacterial activity against Helicobacter pylori strain 1 assessed as diameter of growth inhibition zone at 16 ug/disk after 3-5 days by filter paper disk diffusion method. The conditions noted are these: read-out: DIZ.
For experiment [7], the system named is Helicobacter pylori. In words: Antibacterial activity against Helicobacter pylori strain 1 assessed as diameter of growth inhibition zone at 8 ug/disk after 3-5 days by filter paper disk diffusion method. To be noted: read-out: DIZ.
For experiment [8], the system named is Helicobacter pylori. The experiment is described as follows: Antibacterial activity against Helicobacter pylori strain 3 assessed as diameter of growth inhibition zone at 64 ug/disk after 3-5 days by filter paper disk diffusion method. The conditions noted are these: read-out: DIZ.
Experiment [9] concerns Helicobacter pylori. In words: Antibacterial activity against Helicobacter pylori strain 3 assessed as diameter of growth inhibition zone at 8 ug/disk after 3-5 days by filter paper disk diffusion method. To be noted: read-out: DIZ.
The next experiment concerns Pseudomonas aeruginosa. The experiment is described as follows: microbe, parasite or virus in culture. The conditions noted are these: ATCC 9027, 24 h.
Experiment [10] concerns Helicobacter pylori. In words: Antibacterial activity against Helicobacter pylori strain 3 assessed as diameter of growth inhibition zone at 16 ug/disk after 3-5 days by filter paper disk diffusion method. To be noted: read-out: DIZ.
In experiment [11] the test system is Helicobacter pylori. The experiment is described as follows: Antibacterial activity against Helicobacter pylori strain 1 assessed as diameter of growth inhibition zone at 32 ug/disk after 3-5 days by filter paper disk diffusion method. The conditions noted are these: read-out: DIZ.
A further experiment deals with Staphylococcus aureus. The experiment is described as follows: microbe, parasite or virus in culture. The conditions noted are these: ATCC 6538p, 24 h.
The next experiment relates to Escherichia coli. In words: microbe, parasite or virus in culture. The conditions noted are these: ATCC 8739, 24 h.
In a further experiment the test system is Klebsiella pneumoniae. The experiment is described as follows: microbe, parasite or virus in culture. To be noted: ATCC 10031, 24 h.
The test system of experiment [12] is Staphylococcus epidermidis. In words: microbe, parasite or virus in culture. The conditions noted are these: ATCC 12228, 24 h.
Description: Antibacterial activity against Staphylococcus epidermidis ATCC 12228 assessed as growth inhibition after 24 hr by microdilution method
In experiment [13] the test system is Helicobacter pylori. In words: Antibacterial activity against Helicobacter pylori strain 2 assessed as diameter of growth inhibition zone at 64 ug/disk after 3-5 days by filter paper disk diffusion method. The conditions noted are these: read-out: DIZ.
A further experiment has as its system Bacillus subtilis. In words: microbe, parasite or virus in culture. The conditions noted are these: ATCC 6633, 24 h.

In brackets after ≈: the same amount, converted by molar mass.

Description for Bacillus subtilis: Antibacterial activity against Bacillus subtilis ATCC 6633 assessed as growth inhibition after 24 hr by microdilution method
Description for Escherichia coli: Antibacterial activity against Escherichia coli ATCC 8739 assessed as growth inhibition after 24 hr by microdilution method
Description for Klebsiella pneumoniae: Antibacterial activity against Klebsiella pneumoniae ATCC 10031 assessed as growth inhibition after 24 hr by microdilution method
Description for Pseudomonas aeruginosa: Antibacterial activity against Pseudomonas aeruginosa ATCC 9027 assessed as growth inhibition after 24 hr by microdilution method
Description for Staphylococcus aureus: Antibacterial activity against Staphylococcus aureus ATCC 6538p assessed as growth inhibition after 24 hr by microdilution method

Turning to `O=C1N/C(=N\c2nccs2)S/C1=C\c1ccc([N+](=O)[O-])s1`, the figures for the zone of inhibition at 16 µg/disc in the experiment on Helicobacter pylori [1], with Helicobacter pylori [6] and in the experiment on Helicobacter pylori [10] were 28 mm, 40 mm and 35 mm, respectively. For the same compound, the values for the zone of inhibition at 32 µg/disc with Helicobacter pylori [2], with Helicobacter pylori [3] and in the experiment with Helicobacter pylori [11] were 30 mm, 40 mm and 42 mm, respectively. Also, the results for the zone of inhibition at 8 µg/disc with Helicobacter pylori [4], with Helicobacter pylori [7] and in the experiment on Helicobacter pylori [9] were 25 mm, 36 mm and 33 mm, respectively. The zone of inhibition at 64 µg/disc was 45 mm in the experiment on Helicobacter pylori [5], 45 mm in the experiment with Helicobacter pylori [8] and 34 mm in the experiment on Helicobacter pylori [13]. In addition, the MIC was > 100 µg/mL in the experiment with Pseudomonas aeruginosa; 1.56 µg/mL (≈ 4.61 µM) against Staphylococcus aureus; > 100 µg/mL against Escherichia coli; > 100 µg/mL against Klebsiella pneumoniae; 0.39 µg/mL (≈ 1.15 µM) in [12]; 0.78 µg/mL (≈ 2.3 µM) in the experiment on Bacillus subtilis.

As to `O=C1N/C(=N\c2nc3ccccc3s2)S/C1=C\C1C(=O)Nc2ccccc21` (stereo unspecified), the zone of inhibition at 16 µg/disc in the experiment on Helicobacter pylori [1] stood at 13 mm; in the experiment on Helicobacter pylori [6], 6 mm; in the experiment on Helicobacter pylori [10], 6 mm. Moreover, the zone of inhibition at 32 µg/disc came out at 16 mm in the experiment on Helicobacter pylori [2], 6 mm in the experiment on Helicobacter pylori [3] and 10 mm in the experiment with Helicobacter pylori [11]. The results for the zone of inhibition at 8 µg/disc in the experiment on Helicobacter pylori [4], with Helicobacter pylori [7] and with Helicobacter pylori [9] were 11 mm, 6 mm and 6 mm, respectively. In addition, the zone of inhibition at 64 µg/disc was 13 mm with Helicobacter pylori [5], 10 mm in the experiment with Helicobacter pylori [8] and 18 mm in the experiment with Helicobacter pylori [13]. Moreover, the MIC (in the experiment with Pseudomonas aeruginosa; against Staphylococcus aureus; against Escherichia coli; in the experiment with Klebsiella pneumoniae; in [12]; with Bacillus subtilis) was > 100 µg/mL throughout.
